Data from patent US20120122913A1, “COMBINATION OF CURCUMINOIDS AND MTOR INHIBITORS FOR THE TREATMENT OF TAUOPATHIES” (Institut National De La Recherche Scientifque, priority 2009, published 2012).

Key:
Tau protein = assay: Total Tau protein level by Western blot in differentiated SH-SY5Y cells exposed to β-amyloid(1-42); format: cell-based, human; details: 48 h
Procedure: Chemical treatments were initiated and kept for 48 h.
On day 8, cells were observed under an inverted microscope to ensure that they are fully adherent and free of microbial contamination. On day 9, Petri dishes were used for Western Blot analyses. […] Cells were then removed with a cell scraper, transferred to a 0.6 ml microtube and kept on ice. Samples were sonicated for 30 seconds and mixed with a vortex for 5 seconds and the procedure was repeated once. Samples obtained were stored at −80 ° C. in aliquots of 20 μl. For SDS-PAGE analysis, samples (20 μl) were mixed with 7.34 μl of 4× SDS gel loading buffer (200 mM Tris-HCl, pH 6.8, 8% SDS, 20% Glycerol, 0.4% bromophenol blue and 400 mM β-mercaptoethanol) and 2 μl of cell lysing buffer, boiled for 10 min, cooled on ice, spun on a microcentrifuge and transferred to wells of an electrophoresis apparatus containing a 4% acrylamide stacking gel and a 8% acrylamide resolving gel. Electrophoresis protein separation was performed overnight using a constant current (40 V). Proteins were transferred to nitrocellulose by electro-blotting in a 20% methanol-transfer buffer with a constant 900 mA current for 90 min. Ponceau Red staining was performed to evaluate the quality of loading and transfer. […] The membrane was then washed 4 times for 5 min each time with TBS-0.1% Tween™, and soaked with the chemiluminescence substrate (Enhanced Luminol™ from PerkinElmer). X-Ray films were exposed to the membranes long enough to optimize each band detection. Band Intensity was quantified using a Fluor-S Multimager™ (Bio-Rad scanner) and the Quantity One™ software (Bio-Rad) and data adjusted with local background.

[1] = system: differentiated SH-SY5Y cells; assay: MTT cell viability assay in differentiated SH-SY5Y cells exposed to β-amyloid(1-42); details: 48 h
Procedure: For the cytotoxicity assay, 48 well-plates were seeded with 180,000 cells and 500 μl of culture medium was added. Five Petri dishes (or 6-well plates) were prepared for each treatment. […] On day 7, the culture medium was removed and changed with a medium free of retinoic acid and FBS, but containing 2 nM of BDNF (Sigma Cat. No. B3795), from a 2 μM master solution in filtered sterile water). Chemical treatments were initiated and kept for 48 h. […] The Human Beta Amyloid (Aβ(1-42), Chemicon Cat. No. AG972) solution was prepared according to the manufacturer's instructions. […] The solution was subsequently diluted in serum-deprived culture medium containing BDNF (2 nM final concentration) to obtain either a 5 nM or 5 μM Aβ(1-42) final concentration.
In parallel, on day 9, plates were used for the MTT cell viability assay. A volume of 62.5 μl of a 3-(4,5-Dimethylthiazol-2-yl)-2,5-diphenyltetrazolium bromide (MTT) solution (5 mg/ml in a 1:1 PBS/culture medium) was added, then plates were incubated for 4 h. A volume of 312.5 μl of isopropanol—0.1N HCl was added, then for each well the content was mixed using a pipette (wide bore tip) to solubilize the product. The optical density at 560 nm, which is proportional to the number of living cells, was measured (reference at 690 nm).

## COc1cc(/C=C/C(=O)CC(=O)/C=C/c2ccc(O)c(OC)c2)ccc1O [curcumin, (E,E)-1,7-bis(4-Hydroxy-3-methoxyphenyl)-1,6-heptadiene-3,5-dione]
Tau protein; 10 μM curcumin, 5 μM human β-amyloid(1-42), FIG. 3
  reduction in the total amount of Tau protein as compared to controls: 0.5%
Tau protein; 15 μM curcumin, 5 nM human β-amyloid(1-42), FIG. 5
  reduction in the total amount of Tau protein as compared to controls: 6.7%
Tau protein; 20 μM curcumin, 5 nM human β-amyloid(1-42), FIG. 1
  reduction in the total amount of Tau protein as compared to controls: 2.1%
[1]; 10 μM curcumin, 5 μM β-amyloid(1-42), FIG. 4
  cytotoxicity (cell viability, MTT): none of these three treatments were cytotoxic
[1]; 15 μM curcumin, 5 nM β-amyloid(1-42), FIG. 6
  cytotoxicity (cell viability, MTT): none of these three treatments were cytotoxic
[1]; 20 μM curcumin, 5 nM β-amyloid(1-42), FIG. 2
  cytotoxicity (cell viability, MTT): none of these three treatments were cytotoxic

## CO[C@H]1C[C@@H]2CC[C@@H](C)[C@@](O)(O2)C(=O)C(=O)N2CCCC[C@H]2C(=O)O[C@H]([C@H](C)C[C@@H]2CC[C@@H](OCCO)[C@H](OC)C2)CC(=O)[C@H](C)/C=C(\C)[C@@H](O)[C@@H](OC)C(=O)[C@H](C)C[C@H](C)/C=C/C=C/C=C/1C [Everolimus]
Tau protein; 1 nM Everolimus, 5 μM human β-amyloid(1-42), FIG. 3
  reduction in the total amount of Tau protein as compared to controls: 17.2%
Tau protein; 2 nM Everolimus, 5 nM human β-amyloid(1-42), FIG. 1
  reduction in the total amount of Tau protein as compared to controls: 18.7%
[1]; 1 nM Everolimus, 5 μM β-amyloid(1-42), FIG. 4
  cytotoxicity (cell viability, MTT): none of these three treatments were cytotoxic
[1]; 2 nM Everolimus, 5 nM β-amyloid(1-42), FIG. 2
  cytotoxicity (cell viability, MTT): none of these three treatments were cytotoxic

## CO[C@H]1C[C@@H]2CC[C@@H](C)[C@@](O)(O2)C(=O)C(=O)N2CCCC[C@H]2C(=O)O[C@H]([C@H](C)C[C@@H]2CC[C@@H](OC(=O)C(C)(CO)CO)[C@H](OC)C2)CC(=O)[C@H](C)/C=C(\C)[C@@H](O)[C@@H](OC)C(=O)[C@H](C)C[C@H](C)/C=C/C=C/C=C/1C [Temsirolimus]
Tau protein; 2 nM Temsirolimus, 5 nM human β-amyloid(1-42), FIG. 5
  reduction in the total amount of Tau protein as compared to controls: 5.3%
[1]; 2 nM Temsirolimus, 5 nM β-amyloid(1-42), FIG. 6
  cytotoxicity (cell viability, MTT): none of these three treatments were cytotoxic
